# “And” between values parts separate entries of the source, which are not always exact repeats. Identical values can stand only once. Counter-ions that a name gives are not always drawn.
# Experiments:
# Female sabra mice = assay: Forced swimming test (FST) for depressive effect; format: in vivo; settings: for moment/kicking per minute score, Mean: mean of last 4 min
# Method: To find out whether HU436 has depressive effects on mice behavior—a forced swimming test (FST) was adopted.
# Female sabra mice 6-8 weeks old were employed. Measurement of locomotor activity in mice movements were counted for 6 minutes.
# Forced Swimming test (FST): The forced swimming test employed was essential similar to that described in ((Pettit-Demoulier et al, (2005) Psychopharmacology 177:245-255;)
# Mice were dropped individually into a glass aquarium (height […], diameter 10 cm) containing 10 cm of water and their activity was monitored for 6 minutes. Of the total 6 minutes only the last 4 minutes was recorded—the first 2 minutes were considered as time for habitation.
# The mice were treated either with 5 mg/kg or 10 mg/kg of HU436 (ip). Mice were scored at 10 minutes 90 minutes or 180 minutes after administration. In addition to mice treated with vehicle as control, 1 mice was injected ip with 5 mg/kg CBD and scored 10 minutes later. The movements/kicking of the mice were counted and the data are presented in the attached Table 1.
# Sabra mice [1] = assay: Zymosan-induced hind paw swelling (inflammation), caliper; format: in vivo
# TNFα = TNFα levels in sera of zymosan-injected Sabra mice (Elisa); format: in vivo; settings: 24 hrs after application
# Method: (§1) Activity of HU-436 given orally were assayed in Sabra mice. Zymosan injected to mice left hind paw, induced inflammation, TNF (tumor necrosis factor) in the serum as well as pain. During 24 h, the inflammatory paw swelling response was assayed by caliper, whereas the pain in the hind paw, was determined by Von Frey monofiber instrument.
# (§2) Sabra female, mice 6-7 weeks old, were employed. Zymosan 0.6 mgr in 40 micro-liters was injected into the left hind paw. Immediately thereafter 20 30, 50 or 100 mg/kg HU436 dissolved in olive oil, in 200 μl—was given orally. Two, six and twenty-four hours thereafter, the injected left hind paw of the mice (total 5-8 mice/treatment), were examined both for swelling (Inflammation) and pain (Von Frey). The levels of TNFα in the sera of Sabra mice were determined by Elisa, 24 hrs after HU-436 application.
# Raw 264.7 cells = assay: Reactive oxygen intermediate (ROI) production by Raw 264.7 macrophages (luminol/zymosan chemiluminescence); format: cell-based, mice; settings: Mus musculus, RAW264.7, read-out: inhibition of ROI generation
# Method: (§3) Raw 264.7 cells, a monocytic-macrophage cell line derived from BALB/c mice, were obtained from American Type Culture collection (Rockville, Md.). The cells were cultured in Dulbecco's modified Eagle medium (DMEM) supplemented with 5% fetal calf serum (FCS) and sodium pyrovate, glutamine, and antibiotics. For activation, the cells were incubated with LPS (E. coli 1 μg/mL for 24 h, Sigma, Israel). These cells were applied for ROI and Nitric Oxide (NO) generation in-vitro.
# Raw 264.7 cells were removed using a scrapper, washed, and re-suspended in Hanks balanced salt solution (without phenol red). For measurement of chemiluminescence, two luminometer tubes were each loaded with: 0.5 mL of cell suspension (5×10^5 cells), HU-436 (two separate doses in each tube of 40 μg/ml and 60 μg/ml), 10 μL luminol (Sigma) and 30 μL of zymosan (Sigma). The chemiluminescence in each tube was measured immediately thereafter by a luminometer (Biolumate LB 95, Berhold, Wilbad, Germany)
# RAW 264.7 macrophages = assay: Nitric oxide (NO) production by LPS-activated RAW 264.7 macrophages (Griess); format: cell-based, mice; settings: Mus musculus, RAW264.7; 60 μg/ml; LPS 1 μg/mL, 24 h
# Method: as §3
# RAW 264.7 macrophages were treated with various doses (1-60 μg/ml) of HU-436 followed the addition of 1 μg/mL of lipopolysaccharide (LPS, E. coli, Sigma) for activation. The macrophages were then cultivated in a humid atmosphere with 5% CO2 for 24 h. NO generation was determined by measuring the nitrite accumulated in the supernatants (100 μL) of the HU-436-treated macrophages as follows: An equal volume (100 μL) of Griess reagent (1% sulfanilamide, 0.1% naphthalene diamine HCl, 2% H3PO4) was added to each supernatant. Following 10 min of incubation at room temperature, the color production was measured at 550 nm with an ELISA reader. The concentration of nitrite was calculated according to a standard curve. The results are presented in FIG. 1 wherein inhibition of more than 50% was found fallowing incubation of the cells with 60 μg/ml HU-436.
# TNF-α = TNF-α in supernatants of TG macrophages treated with LPS (ELISA); format: cell-based, mice; settings: Mus musculus, Macrophage, 40 μg/ml, read-out: inhibition in TNF production
# Method: Peritoneal cells were harvested from C57BL/6 female mice 4 days after intra-peritoneal injection of 1.5 mL of 3% thioglycollate medium (Difco). The cells (TG macrophages) were washed with phosphate-buffered saline, re-suspended in Dulbecco's modified Eagle medium (DMEM) supplemented with 5% fetal calf serum (FCS), and plated (1.2×10^5) in 96-microwell flat-bottom plates (Nunc, Roskide, Denmark). Following 2-3 h incubation at 37° C., the non-adherent cells were removed by intensive rinsing. About 95% of the adherent cells were macrophages. These cells were applied for studying TNF production in-vitro.
# TNF-α in the supernatants of TG macrophages treated with HU-436 (doses of […]) and LPS was determined by ELISA (R&D) with Ab pairs from Biosource (Camarillo, Calif.). Procedures were carried out following the manufacturer's instructions.
# TNF = TNF level in serum of C57BL mice injected with LPS; format: in vivo; settings: 30 mg/Kg injected together with LPS; 90 min after injection
# Method: Three doses of HU-436 (10 mg/Kg, 20 mg/Kg and 30 mg/Kg) were each injected to three C57BL mice together with LPS. Ninety min fallowing the injections, the mice were bled and the TNF levels in the serum were determined.
# C57BL = assay: Preliminary toxicological studies in C57BL; format: in vivo, mice
# [2] = Weight loss Study 1: body weight of DBA/1 male mice injected Type II collagen for CIA; format: in vivo; settings: 5 mg/Kg intra-peritoneal for 16 days from day 18; 34 days
# Method: DBA/1 male mice (6 weeks old, 20 gram, 15 mice/group) were injected Type II collagen for CIA. On day 18, the mice were injected (intra-peritoneal) with the following doses, for 16 days:
# Vehicle: ethanol: chremophor: saline (1:1:18)
# Methrotrexate (MTX): 0.5 mg/Kg.
# In addition, a control group (wherein no dose was given) was monitored for comparison. The changes in body weight (in grams) was measured daily for a period of 34 days from injection. FIG. 4 (days 18-34) and FIG. 5 (overall change from day 1 to 34), show the changes in body weight of mice over a period of 34 days from injection.
# [3] = Weight loss Study 2: weight change of normal Sabra mice; format: in vivo; settings: 5 mg/Kg intra-peritoneal; 15 and 24 days
# Method: Normal Sabra (mice 9-10 weeks old, about 32 gram, 7 mice/group) were injected (intra-peritoneal) with two doses of HU-436 (5 mg/Kg and 10 mg/Kg). The change in weight of mice was measured daily for 15 (FIG. 6) and 24 days (FIG. 7) from injection. In addition, a control group (wherein no dose was given) was monitored for comparison.
# [4] = Weight loss Study 3: weight gain and food consumption of C57BL/6 mice; format: in vivo; settings: for food consumption: after 1-3 weeks; for reduction in weight gain compared to the control group: three weeks
# Method: C57BL/6 mice (8-9 weeks old, 16 gram, 5 mice/group) were injected (intra-peritoneal) with two doses of HU-436 (5 mg/Kg and 10 mg/Kg). The change in weight of mice was measured weekly for three weeks (FIGS. 8 and 9) from injection. In addition, a control group (wherein no dose was given) was monitored for comparison.
# Sabra mice [5] = assay: Zymosan-induced hind paw pain, Von Frey monofiber instrument; format: in vivo; settings: for pain reduction: 2, 6, 24 h
# Method: as §1, §2
# Pain, was assayed by employing Von-Frey monofiber instrument. The higher the log value measured, the more force (g) one has to apply to cause pain=higher analgesia is being expressed=less pain.
# [6] = 5 mg/kg, 10 min after ip, minute 3 in tank
# [7] = 5 mg/kg, 10 min after ip, minute 4 in tank
# [8] = 5 mg/kg, 10 min after ip, minute 5 in tank
# [9] = 5 mg/kg, 10 min after ip, minute 6 in tank
structure (smiles),measurement,setting,value
"C=C(C)[C@@H]1CCC(C)=C[C@H]1c1c(O)cc(CCCCC)cc1O [CBD, Cannabidiol, reference compound]","moment/kicking per minute score, Mean","Female sabra mice; 5 mg/kg, 10 min after ip",65 per minute
same,moment/kicking per minute score,Female sabra mice; [6],76 per minute
same,moment/kicking per minute score,Female sabra mice; [7],75 per minute
same,moment/kicking per minute score,Female sabra mice; [8],48 per minute
same,moment/kicking per minute score,Female sabra mice; [9],60 per minute
same,potency in reducing inflammation relative to HU-436,Sabra mice [1]; all experiments,scientifically more potent than HU-436 in reducing inflammation
same,reduction of TNFα levels in the sera,TNFα,48-58%
"C=C(C)C1CCC(C)=CC1c1c(OC)cc(CCCCC)cc1OC(=O)CCN1CCOCC1 [HU-436, Maleate Salt of 3-methoxy-2-((6R)-3-methyl-6-(prop-l-en-2-yl)cyclohex-2-enyl)-5-pentylphenyl 3-morpholinopropanoate]",inhibition at 40 µg/mL,Raw 264.7 cells; 40 μg/ml,20%
same,inhibition at 60 µg/mL,Raw 264.7 cells; 60 μg/ml,28%
same,inhibition at 60 µg/mL,RAW 264.7 macrophages,> 50%
same,inhibition at 40 µg/mL,TNF-α,> 60%
same,inhibition in TNF level in the serum,TNF,46%
same,toxicity,C57BL; 50 mg/Kg,non-toxic
same,toxicity,C57BL; 100 mg/Kg,non-toxic
same,reduction of body weight (weight gain of control group = 100% gain),[2],up to 61%
same,changes in weight gain,[3],significantly decreased the changes in weight gain
same,food consumption,[4]; 5 mg/Kg intra-peritoneal,reduction in food consumption
same,reduction in weight gain compared to the control group,[4]; 5 mg/Kg intra-peritoneal,about 50%
same,food consumption,[4]; 10 mg/Kg intra-peritoneal,reduction in food consumption
same,reduction in weight gain compared to the control group,[4]; 10 mg/Kg intra-peritoneal,about 50%
same,"moment/kicking per minute score, Mean","Female sabra mice; 5 mg/kg, 10 min after ip",81 per minute
same,moment/kicking per minute score,Female sabra mice; [6],84 per minute
same,moment/kicking per minute score,Female sabra mice; [7],96 per minute
same,moment/kicking per minute score,Female sabra mice; [8],76 per minute
same,moment/kicking per minute score,Female sabra mice; [9],68 per minute
same,"moment/kicking per minute score, Mean","Female sabra mice; 5 mg/kg, 90 min after ip",75 per minute
same,moment/kicking per minute score,"Female sabra mice; 5 mg/kg, 90 min after ip, minute 3 in tank",70 per minute
same,moment/kicking per minute score,"Female sabra mice; 5 mg/kg, 90 min after ip, minute 4 in tank",85 per minute
same,moment/kicking per minute score,"Female sabra mice; 5 mg/kg, 90 min after ip, minute 5 in tank",72 per minute
same,moment/kicking per minute score,"Female sabra mice; 5 mg/kg, 90 min after ip, minute 6 in tank",73 per minute
same,"moment/kicking per minute score, Mean","Female sabra mice; 10 mg/kg, 10 min after ip",75 per minute
same,moment/kicking per minute score,"Female sabra mice; 10 mg/kg, 10 min after ip, minute 3 in tank",80 per minute
same,moment/kicking per minute score,"Female sabra mice; 10 mg/kg, 10 min after ip, minute 4 in tank",84 per minute
same,moment/kicking per minute score,"Female sabra mice; 10 mg/kg, 10 min after ip, minute 5 in tank",64 per minute
same,moment/kicking per minute score,"Female sabra mice; 10 mg/kg, 10 min after ip, minute 6 in tank",72 per minute
same,"moment/kicking per minute score, Mean","Female sabra mice; 10 mg/kg, 180 min after ip",77 per minute
same,moment/kicking per minute score,"Female sabra mice; 10 mg/kg, 180 min after ip, minute 3 in tank",76 per minute
same,moment/kicking per minute score,"Female sabra mice; 10 mg/kg, 180 min after ip, minute 4 in tank",52 per minute
same,moment/kicking per minute score,"Female sabra mice; 10 mg/kg, 180 min after ip, minute 5 in tank",90 per minute
same,moment/kicking per minute score,"Female sabra mice; 10 mg/kg, 180 min after ip, minute 6 in tank",90 per minute
same,"moment/kicking per minute score, Mean","Female sabra mice; 10 mg/kg, time after ip not given",81 per minute and 83 per minute
same,moment/kicking per minute score,"Female sabra mice; 10 mg/kg, time after ip not given, minute 3 in tank",79 per minute and 74 per minute
same,moment/kicking per minute score,"Female sabra mice; 10 mg/kg, time after ip not given, minute 4 in tank",80 per minute and 64 per minute
same,moment/kicking per minute score,"Female sabra mice; 10 mg/kg, time after ip not given, minute 5 in tank",89 per minute and 112 per minute
same,moment/kicking per minute score,"Female sabra mice; 10 mg/kg, time after ip not given, minute 6 in tank",76 per minute and 83 per minute
same,depressive activity,Female sabra mice; 5 or 10 mg/kg ip,did not cause depressive activity
same,inflammatory response (swelling) compared to controls,Sabra mice [1]; 20 mg/kg ip injection,reduction in inflammatory response (swelling) was observed compared to controls
same,inflammation compared to the controls,Sabra mice [1]; 30 mg/kg given orally,reduced inflammation compared to the controls
same,inflammation compared to the controls,Sabra mice [1]; 50 mg/kg given orally,reduced inflammation compared to the controls
same,anti-inflammation properties,Sabra mice [1]; conclusion,moderate anti-inflammation properties
same,reduction of TNFα levels in the sera,TNFα,up to 20%
same,pain reduction,Sabra mice [5]; 20 mg/kg given orally,marked pain reduction
same,pain reduction,Sabra mice [5]; 30 mg/kg given orally,marked pain reduction
same,pain reduction,Sabra mice [5]; 50 mg/kg given orally,marked pain reduction
same,pain reduction compared to Tremadol (5 mg/kg intra-peritoneally),"Sabra mice [5]; 50 mg/kg, after 24 hr",more potent after 24 hr than Tremadol
same,pain reduction,Sabra mice [5]; 100 mg/kg given orally,marked pain reduction
same,pain reduction compared to Aspirin,"Sabra mice [5]; HU-436 30 or 50 mg/kg vs Aspirin 50 (and 100) mg/kg, 24 hr",the most potent in reducing pain for 24 hr
same,"long lasting pain reduction compared to Cannabidiol, Aspirin",Sabra mice [5]; conclusion,"more effective than Cannabidiol, Aspirin in reducing long lasting pain"

# — patent US11149014B2, “Method for treating pain or associated condition or symptom” (priority 2014, dated 2021)
